The METLIN SMRT retention time set (Domingo-Almenara et al. 2019)

Assay: gradient 5% acetonitrile 3 min, to 50% in 2 min, to 85% in 15 min, held 3 min, 100 µL/min
Details: column: Zorbax Extend-C18 2.1 x 50 mm; eluents: water / acetonitrile, 0.1% formic acid
In short: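 The system's dead and dwell volumes were 40 μL and 900 μL, with a Zorbax Extend-C18 column (2.1 × 50 mm, 1.8 μm) run at 100 μL/min in water and acetonitrile containing 0.1% formic acid each. Pure standards were analyzed in mixtures of ~100 molecules by HPLC–quadrupole time-of-flight mass spectrometry in positive and negative ionization mode. Retention time was assigned from computationally picked, manually inspected adduct peaks.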

Structure (SMILES) | RP-LC retention time [s]
COc1ccc(-c2nn(CCCC(=O)N3CCN(c4ccccc4)CC3)c(=O)c3noc(C)c23)cc1 | 922
COCc1nncn1C1CN(C(=O)Cc2cc(OC)ccc2OC)C1 | 610
COCCn1c(CCCC(=O)N2CCN(c3ccccn3)CC2)nc2cccnc21 | 562
CCc1nc2c(NC(=O)c3ccc(C(F)(F)F)cc3)cccn2n1 | 957
O=C(c1cc2c(s1)CCC(C(=O)N1CCOCC1)C2)N1CCCCC1 (centres undefined) | 701
O=C(c1sc2ncccc2c1-n1cccc1)N1CCN(Cc2ccccc2)CC1 | 648
CN1[C@@H]2CC(OC(=O)[C@H](CO)c3ccccc3)C[C@H]1[C@@H]1O[C@@H]12 (some centres undefined) | 619
CCCN1C(=O)COc2ccc(-c3noc(-c4ccn(CC)n4)n3)cc21 | 956
Cc1ccc(CNC(=O)c2cnc(-c3ccc(C)cc3)nc2-c2ccncc2)cc1 | 923
CCCc1ccc(S(=O)(=O)N2CCC3(CC2)C(=O)N(CC)c2ccccc23)cc1 | 1160
O=C(N[C@H]1C[C@@H]2C[C@H]1N(C(=O)c1ccccc1OC(F)(F)F)C2)c1cccnc1 | 641
COCCNC(=O)c1cc(-c2ccncc2)cn1Cc1ccc(C)cc1 | 640
CC(C)N1C(=O)Cc2ccccc2C1C(=O)NCc1ccco1 (centres undefined) | 720
COc1cccc(C2=NC3(CCN(C(C)=O)CC3)NC(c3cc(Br)ccc3O)C2)c1 (centres undefined) | 694
Cc1ccc(C(=O)Nc2ccc3c(c2)Sc2ncccc2C(=O)N3C(C)C)cc1C | 997
COc1ccc(C2CCCN2C(=O)Cn2nc(C(F)(F)F)cc2C)cc1 (centres undefined) | 953
O=C(Nc1ccc(F)cc1F)Nc1nccn(-c2ccc(F)cc2)c1=O | 942
CCCC(NC(=O)Cc1ccc(C)cc1)C(=O)Nc1nc2ccccc2[nH]1 (centres undefined) | 722
O=S(=O)(c1ccc2nc(N3CCN(c4ccccc4F)CC3)ccc2c1)N1CCCC1 | 998
CSc1ncn(-c2nc(NC(C)C)nc(N(C)C)n2)n1 | 874
Cc1cccc2nnc(N3CCN(C(=O)c4ccc(Cl)s4)CC3)n12 | 701
O=C(c1nc(-c2ccnc(N3CCCC3)c2)no1)N1CCC2(CC1)OCCO2 | 617

Structure (SMILES) | RP-LC retention time [s]
CS(=O)(=O)c1cccc(CNc2nc(Nc3ccc4c(c3)CCC(=O)N4)ncc2C(F)(F)F)c1 | 737
CCOc1ccc(S(=O)(=O)NC2CCN(c3ccc(=O)n(CC4CC4)n3)C2)cc1 (centres undefined) | 834
COc1ccc(-c2noc(C3CCCN3C(=O)c3ccc(NC(C)=O)cc3)n2)cc1 (centres undefined) | 752
CC1(C(=O)NCc2ccccc2)CCN(C(=O)Nc2cccc(C(F)(F)F)c2)CC1 | 919
O=C(CC1CCN(S(=O)(=O)c2ccc(Cl)s2)CC1)N1CCCCC1 | 946
CCCCN1CCN(C(=O)c2cnc(-c3ccccc3)nc2-c2ccncc2)CC1 | 638
COc1ccc(Cn2nnc(C(=O)NCC3CC3)c2-n2cccc2)cc1 | 924
CCOC(=O)CNC(=O)N1CCN(c2nc3ccccc3nc2C(F)(F)F)CC1 | 881
Cn1cc(S(=O)(=O)N2CCOCC2)cc1C(=O)N1CCN(c2ccc(F)cc2)CC1 | 806
CCOC(=O)c1c(C)[nH]c(C(=O)N2CCC(CC(=O)NC3CCCCC3)CC2)c1C | 778
CCS(=O)(=O)Nc1ccc(C2(C(=O)NCC3CCCO3)CCCCC2)cc1 (centres undefined) | 781
O=C(N1CCOC(c2ccc(C(F)(F)F)cc2)C1)C1(c2ccc(F)cc2)CC1 (centres undefined) | 1020
CC(=O)Nc1ccc(-n2cnc(C(=O)NC(C)CCc3ccccc3)c2)nc1 (centres undefined) | 744
O=C(CCNc1c(-c2ccccc2)nc2cnccn12)NCc1cccc(F)c1 | 698
CCCCNC(=O)c1cc(NC(=O)C2CCC2)cc2nc(C)ccc12 | 644
CCn1c(C(=O)NCCCN2CCOCC2)cc2c(-c3cccs3)nn(-c3ccccc3)c21 | 705
CCc1cc(N2CCN(C(=O)c3cccc(C#N)c3)CC2)nc2nncn12 | 589
COCCCNC(=O)C1CCCN(c2nnc3ccccn23)C1 (centres undefined) | 529
CCCn1cc(S(=O)(=O)Nc2cc(F)cc(F)c2)c2cccnc21 | 890
COc1ccc(N2CC(c3nc(-c4ccc(Cl)cc4)no3)CC2=O)c(OC)c1 (centres undefined) | 1000
O=C(c1cncc(NS(=O)(=O)c2ccc(Cl)cc2)c1)N1CCCc2ccccc21 | 880
Cc1ccc(C)c(C(=O)N2CCC(c3cc4n(n3)CCCN(C)C4=O)CC2)c1 | 690
